From US20040229821A1, “Orally administrable pharmaceutical compositions and methods for preventing food-drug interaction” (priority 2003, published 2004)
Read-outs that look alike come from different tables or passages of the source.

How the values were obtained:
[1] = target: T1, trypsin (Bos taurus, UniProt P00760); experiment: Activity (IC50) on trypsin; format: biochemical; conditions: stated in words
T1 construct: gene PRSS1
T1 sequence (P00760 24-246): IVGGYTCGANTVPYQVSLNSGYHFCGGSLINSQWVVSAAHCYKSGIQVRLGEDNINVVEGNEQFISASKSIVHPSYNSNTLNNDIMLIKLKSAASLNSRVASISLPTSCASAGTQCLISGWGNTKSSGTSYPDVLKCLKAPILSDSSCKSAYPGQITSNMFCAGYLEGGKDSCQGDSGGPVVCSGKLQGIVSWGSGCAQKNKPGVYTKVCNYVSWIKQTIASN
From the text: (§1) Other oral thrombin inhibitors under development than Drug A have been reported to show changes of bioavailability by food intake. […] The above two substances have different activities not only on thrombin but also on trypsin. […] In other words, the bioavailability of S18326 with higher activity on trypsin was more affected by food intake than S31922. […] Its activity on trypsin has not yet been reported, but since it is an ariginine (Arg) derivative like S18326, it is anticipated to have high activity on trypsin. […] The bioavailability of melagatran is affected by food intake because it has a charge in the intestinal pH, and so its membrane permeability is decreased [D. Gustafsson et al., The direct thrombin inhibitor melagatran and its oral prodrug H376/95: Intestinal absorption properties, biochemical and pharmacodynamic effects, Thrombosis Res., 101(2001) 171-181]. In order to improve the decreased membrane permeability, its prodrug was prepared and confirmed to have improved bioavailability and to prevent the bioavailability variance by food intake. However, melagatran is also one in the series of strong basic group, amidine, and thus has a strong inhibitory effect on trypsin.

[2] = Pharmacokinetic test of Drug A in dogs, empty stomach vs after food intake; format: in vivo; conditions: oral
From the text: as §1
Drug A is an orally active thrombin inhibitor, and is effective for preventing or treating the formation of thrombus. […]

[3] = Pharmacokinetic test of Drug A in rats, empty stomach vs after food intake; format: in vivo; conditions: oral, absorbed well on an empty stomach
From the text: as §1

[4] = dogs, oral; cited from earlier work
[5] = target: thrombin (Homo sapiens, UniProt P00734); conditions: cited from earlier work
[6] = target: T1, trypsin; conditions: cited from earlier work
[7] = humans, oral; cited from earlier work
[8] = rats, oral; cited from earlier work

Compound | Bioavailability after food intake [4] | Bioavailability on an empty stomach [4] | IC50 [5] | IC50 [6] | Change of bioavailability after food intake [7] | further results
N=C(N)c1ccc(CNC(=O)[C@@H]2CCCN2C(=O)[C@H](NCC(=O)O)C(c2ccccc2)c2ccccc2)s1 [Drug A, (2S)-N-{5-[amino(imino)methyl]-2-thienyl}methyl-1-{(2R)-2-[(carboxymethyl)amino]-3,3-diphenylpropanoyl}-2-pyrrolidinecarboxamide] |  |  |  |  |  | Activity on the digestive enzyme trypsin [1]: high activity; Bioavailability after food intake relative to empty stomach ([2]; dog, in vivo, solution of Drug A, read-out: Bioavailability after food intake compared with on an empty stomach): 10%; Change of bioavailability when administered after food intake ([2]; absorbed well on an empty stomach): remarkably decreased; Change of bioavailability when administered after food intake [3]: remarkably decreased
CC(=O)N[C@H](Cc1ccccc1)C(=O)N(CC(=O)N[C@@H](CCCN=C(N)N)B(O)O)C1CCCC1 [Example S-18326] | 6% | 27% | 3.6 nM | 20 nM |  | 
NCCCCC(NC(=O)C1(C(=O)NCCc2ccccc2)CCCC1)B(O)O (stereo not drawn) [Example S-31922] | 22% | 36% | 43 nM | 340 nM |  | 
N=C(N)c1ccc(CNC(=O)[C@@H]2CCN2C(=O)[C@H](NCC(=O)O)C2CCCCC2)cc1 [melagatran] |  |  |  |  | remarkably decreased | 
R-Piq-Pro-Arg-H |  |  |  |  | remarkably decreased | Change of bioavailability after food intake [8]: remarkably decreased
